Assay results taken from US12252524B2, “GIP/GLP1 co-agonist compounds” (Eli Lilly and Company, priority 2018, dated 2025).
Numbered stars: 1 amine (or outer) side, 2 acyl side, 3 side chain; on linkers, the order of the positions; unused ones are H or OH. Square brackets hold non-standard residues; d marks the D form. Side chains are listed from the residue outwards. Peptide text beside a SMILES is read from it. * marks the point of attachment. C20 diacid = O=C(O)CCCCCCCCCCCCCCCCCCC(=O)*; γGlu = O=C(O)[C@H](CCC(=O)[*:2])N[*:1]; αMeY = C[C@](N)(Cc1ccc(O)cc1)C(=O)O; αMeL = CC(C)C[C@](C)(N)C(=O)O; AEEA = NCCOCCOCC(=O)O; Aib = CC(C)(N)C(=O)O

Tests used:
[1] = target: T1, human GLP-1R (Homo sapiens, UniProt P43220); assay: [125I]-GLP-1 binding (SPA), human GLP-1 receptor; set-up: expressed in transfected cells; crude membranes; conditions: read-out: hGLP1R Ki, (nM) (SEM, n)
T1 sequence (P43220 24-463): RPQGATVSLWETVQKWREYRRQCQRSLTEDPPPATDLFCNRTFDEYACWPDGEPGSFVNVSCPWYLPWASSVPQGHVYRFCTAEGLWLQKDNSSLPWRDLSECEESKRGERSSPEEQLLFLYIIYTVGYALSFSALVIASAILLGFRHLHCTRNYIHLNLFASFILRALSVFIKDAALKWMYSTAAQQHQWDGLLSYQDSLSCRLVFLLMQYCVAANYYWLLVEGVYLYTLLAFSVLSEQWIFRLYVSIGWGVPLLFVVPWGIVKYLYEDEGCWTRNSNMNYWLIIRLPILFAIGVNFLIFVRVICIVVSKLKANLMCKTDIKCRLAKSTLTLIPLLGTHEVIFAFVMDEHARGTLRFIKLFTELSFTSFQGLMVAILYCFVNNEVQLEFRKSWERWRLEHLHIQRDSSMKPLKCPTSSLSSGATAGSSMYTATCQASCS
Procedure, shortened: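 Membranes: hypotonic lysis (50 mM Tris HCl, pH 7.5, protease inhibitors), Potter-Elvehjem homogenization, high-speed pellet (35000×g 1 h or 25000×g 30 min, 4° C.). Buffer: 25 mM HEPES pH 7.4, 2.5 mM CaCl2, 1 mM MgCl2. Four-parameter IC50 fit; Ki as geometric mean ± SEM.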

[2] = target: T1, human GLP-1R; assay: GLP-1R CHO cell β-arrestin recruitment assay; format: cell-based; set-up: host or cells: CHO-K1 PathHunter cells, assay-ready frozen; conditions: for EC50: CHO-K1 cells; for hGLP1R B-Arrestin2 % Top: normalized to GLP-1 maximum control
Procedure, shortened: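 Peptide-induced β-arrestin-2 recruitment measured by enzyme-fragment complementation luminescence after 90 min at 37 °C plus 60 min detection at RT.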

[3] = target: human GLP-1 receptor (GLP-1R) (Homo sapiens, UniProt P43220); assay: cAMP pharmacological functional assay in presence of casein, hGLP-1R; format: cell-based; conditions: HEK293 cells expressing hGLP-1R, 0.1% Casein, geometric mean; read-out: hGLP1R cAMP Rel EC50 nM (SEM, n)
human GLP-1 receptor (GLP-1R), sequence (P43220 24-463): as above

[4] = target: T2, gastric inhibitory peptide receptor (GIPR) (Homo sapiens, UniProt P48546); assay: cAMP pharmacological functional assay in presence of casein, hGIPR; format: cell-based; conditions: HEK293 cells expressing hGIPR, 0.1% Casein, geometric mean; read-out: hGIPR cAMP Rel EC50 nM (SEM, n)
T2 sequence (P48546 22-466): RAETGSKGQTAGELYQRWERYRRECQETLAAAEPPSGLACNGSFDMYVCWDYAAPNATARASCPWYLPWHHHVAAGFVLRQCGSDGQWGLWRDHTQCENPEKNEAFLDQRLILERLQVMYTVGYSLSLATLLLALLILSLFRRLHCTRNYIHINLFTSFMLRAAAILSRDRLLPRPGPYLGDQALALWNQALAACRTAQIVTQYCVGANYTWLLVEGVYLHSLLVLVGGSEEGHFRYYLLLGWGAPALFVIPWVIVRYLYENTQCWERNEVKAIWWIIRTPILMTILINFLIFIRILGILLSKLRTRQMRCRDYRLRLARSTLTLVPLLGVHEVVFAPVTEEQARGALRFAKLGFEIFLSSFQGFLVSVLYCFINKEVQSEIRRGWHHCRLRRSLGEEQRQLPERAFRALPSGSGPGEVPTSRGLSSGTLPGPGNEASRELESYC

[5] = target: T3, human GIP receptor (Homo sapiens, UniProt P48546); assay: [125I]-GIP binding (SPA), human GIP receptor; conditions: read-out: hGIPR Ki, nM (SEM, n)
T3 construct: expressed in transfected cells; crude membranes
T3 sequence (P48546 22-466): T2 sequence (P48546 22-466)

[6] = target: T4, human Gcg receptor (Homo sapiens, UniProt P47871); assay: [125I]-Glucagon binding (SPA), human Gcg receptor; conditions: read-out: hGLcgR Ki, nM (SEM, n)
T4 construct: expressed in transfected cells; crude membranes
T4 sequence (P47871 26-477): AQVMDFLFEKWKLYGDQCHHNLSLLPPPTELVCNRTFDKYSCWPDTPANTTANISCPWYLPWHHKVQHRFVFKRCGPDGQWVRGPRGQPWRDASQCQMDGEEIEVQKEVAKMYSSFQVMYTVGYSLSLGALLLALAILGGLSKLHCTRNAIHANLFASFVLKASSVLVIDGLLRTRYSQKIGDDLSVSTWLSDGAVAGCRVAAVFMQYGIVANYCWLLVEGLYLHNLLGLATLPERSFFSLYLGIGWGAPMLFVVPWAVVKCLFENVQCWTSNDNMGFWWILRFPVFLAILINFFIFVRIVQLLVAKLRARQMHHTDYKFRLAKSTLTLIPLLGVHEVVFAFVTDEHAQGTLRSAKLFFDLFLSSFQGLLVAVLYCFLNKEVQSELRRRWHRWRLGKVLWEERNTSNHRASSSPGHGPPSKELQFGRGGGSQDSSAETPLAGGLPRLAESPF
Procedure, shortened: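 Scintillation counts are taken after membranes and WGA beads incubate and settle for 12 hours at room temperature. Buffer is 25 mM HEPES, pH 7.4, with CaCl2, MgCl2, bacitracin and Tween-20. Ki values, from four-parameter IC50 fits, are geometric means over independent days.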

[7] = target: T1, human GLP-1R; assay: GLP-1R HEK293 cell membrane [35S]GTPγS binding assay; format: biochemical; set-up: expressed in transfected cells; host or cells: HEK293 cells expressing human GLP-1R; membranes; conditions: HEK293 cell membranes expressing human GLP-1R, [35S]GTPγS binding; read-out: hGLP1R GTPgS Rel EC50 nM (SEM, n)
Procedure, shortened: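 Agonist-driven Gαs activation read as [35S]GTPγS ([…]) binding to receptor-expressing HEK293 membranes, 30 min at room temperature, pH 7.4. Detection by anti-Gαs immunocapture on scintillation beads; EC50 derived from four-parameter logistic concentration-response fit.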

[8] = PathHunter β-arrestin-2 recruitment, 0.1% casein, read-out: hGLP1R B-Arrestin2 Rel EC50 uM (SEM, n)

In the case of `CC[C@H](C)[C@H](NC(=O)[C@H](CC(C)C)NC(=O)[C@H](Cc1ccc(O)cc1)NC(=O)[C@H](CCC(=O)O)NC(=O)[C@@H](NC(=O)[C@H](Cc1ccccc1)NC(=O)[C@H](CCC(=O)O)NC(=O)C(C)(C)NC(=O)[C@H](CCC(N)=O)NC(=O)[C@H](C)NC(=O)[C@H](CCCCNC(=O)COCCOCCNC(=O)COCCOCCNC(=O)CC[C@H](NC(=O)CCCCCCCCCCCCCCCCCCC(=O)O)C(=O)O)NC(=O)[C@H](CCC(=O)O)NC(=O)[C@H](CC(=O)O)NC(=O)[C@H](CC(C)C)NC(=O)[C@](C)(CC(C)C)NC(=O)[C@@H](NC(=O)[C@H](CO)NC(=O)[C@H](Cc1ccc(O)cc1)NC(=O)[C@H](CC(=O)O)NC(=O)[C@H](CO)NC(=O)[C@@H](NC(=O)[C@H](Cc1ccccc1)NC(=O)[C@@H](NC(=O)CNC(=O)[C@H](CCC(=O)O)NC(=O)C(C)(C)NC(=O)[C@@H](N)Cc1ccc(O)cc1)[C@@H](C)O)[C@@H](C)O)[C@@H](C)CC)[C@@H](C)CC)C(=O)N[C@@H](C)C(=O)NCC(=O)NCC(=O)N1CCC[C@H]1C(=O)N[C@@H](CO)C(=O)N[C@@H](CO)C(=O)NCC(=O)N[C@@H](C)C(=O)N1CCC[C@H]1C(=O)N1CCC[C@H]1C(=O)N1CCC[C@H]1C(=O)N[C@@H](CO)C(N)=O` [Example 331] (H-Y[Aib]EGTFTSDYSI[αMeL]LDEK([AEEA-AEEA-γGlu-C20 diacid])AQ[Aib]EFIEYLIAGGPSSGAPPPS-NH2), the Ki [1] is reported as 11.4 nM, the EC50 [2, 8] is reported as 0.0128 µM and the “hGLP1R B-Arrestin2 % Top” value [2] is reported as 44.3%. For the same molecule, the EC50 [3] was 0.0929 nM, the EC50 [4] was 0.0547 nM and the Ki [5] was 0.0851 nM. For the same molecule, the Ki [6] was over 969 nM and the EC50 [7] was 0.375 nM.

`CC[C@H](C)[C@H](NC(=O)[C@H](CC(C)C)NC(=O)[C@H](Cc1ccc(O)cc1)NC(=O)[C@H](CCC(=O)O)NC(=O)[C@@H](NC(=O)[C@H](Cc1ccccc1)NC(=O)[C@H](C)NC(=O)C(C)(C)NC(=O)[C@H](CCC(N)=O)NC(=O)[C@H](C)NC(=O)[C@H](CCCCNC(=O)COCCOCCNC(=O)COCCOCCNC(=O)CC[C@H](NC(=O)CCCCCCCCCCCCCCCCCCC(=O)O)C(=O)O)NC(=O)[C@H](CCC(=O)O)NC(=O)[C@H](CC(=O)O)NC(=O)[C@H](CC(C)C)NC(=O)[C@](C)(CC(C)C)NC(=O)[C@@H](NC(=O)[C@H](CO)NC(=O)[C@H](Cc1ccc(O)cc1)NC(=O)[C@H](CC(=O)O)NC(=O)[C@H](CO)NC(=O)[C@@H](NC(=O)[C@H](Cc1ccccc1)NC(=O)[C@@H](NC(=O)CNC(=O)[C@H](CCC(=O)O)NC(=O)C(C)(C)NC(=O)[C@H](N)Cc1ccc(O)cc1)[C@@H](C)O)[C@@H](C)O)[C@@H](C)CC)[C@@H](C)CC)C(=O)N[C@@H](C)C(=O)NCC(=O)NCC(=O)N1CCC[C@H]1C(=O)N[C@@H](CO)C(=O)N[C@@H](CO)C(=O)NCC(=O)N[C@@H](C)C(=O)N1CCC[C@H]1C(=O)N1CCC[C@H]1C(=O)N1CCC[C@H]1C(=O)N[C@@H](CO)C(N)=O` [Example 341] (H-[dY][Aib]EGTFTSDYSI[αMeL]LDEK([AEEA-AEEA-γGlu-C20 diacid])AQ[Aib]AFIEYLIAGGPSSGAPPPS-NH2; N-terminus assumed) was tested, and the Ki [1] was 6.49 nM, the EC50 [2, 8] was 0.0188 µM and the “hGLP1R B-Arrestin2 % Top” value [2] was 21.9%. The EC50 [3] was 0.373 nM, the EC50 [4] was 0.238 nM and the Ki [5] was 0.0559 nM. It also gave a Ki [6] of 39.7 nM and an EC50 [7] of 0.496 nM.

`CC[C@H](C)[C@H](NC(=O)[C@H](CC(C)C)NC(=O)[C@H](Cc1ccc(O)cc1)NC(=O)[C@H](CCC(=O)O)NC(=O)[C@@H](NC(=O)[C@H](Cc1ccccc1)NC(=O)[C@H](C)NC(=O)C(C)(C)NC(=O)[C@H](CCC(N)=O)NC(=O)[C@H](C)NC(=O)[C@H](CCCCNC(=O)COCCOCCNC(=O)COCCOCCNC(=O)CC[C@H](NC(=O)CCCCCCCCCCCCCCCCCCC(=O)O)C(=O)O)NC(=O)[C@H](CCCCN)NC(=O)[C@H](CC(=O)O)NC(=O)[C@H](CC(C)C)NC(=O)[C@](C)(CC(C)C)NC(=O)[C@@H](NC(=O)[C@H](CO)NC(=O)[C@H](Cc1ccc(O)cc1)NC(=O)[C@H](CC(=O)O)NC(=O)[C@H](CO)NC(=O)[C@@H](NC(=O)[C@H](Cc1ccccc1)NC(=O)[C@@H](NC(=O)CNC(=O)[C@H](CCC(=O)O)NC(=O)C(C)(C)NC(=O)[C@H](N)Cc1ccc(O)cc1)[C@@H](C)O)[C@@H](C)O)[C@@H](C)CC)[C@@H](C)CC)C(=O)N[C@@H](CCC(=O)O)C(=O)NCC(=O)NCC(=O)N1CCC[C@H]1C(=O)N[C@@H](CO)C(=O)N[C@@H](CO)C(=O)NCC(=O)N[C@@H](C)C(=O)N1CCC[C@H]1C(=O)N1CCC[C@H]1C(=O)N1CCC[C@H]1C(=O)N[C@@H](CO)C(N)=O` [Example 334] showed a Ki [1] of 2.17 nM, an EC50 ([2]; 0.1% w/v hydrolyzed Casein, read-out: hGLP1R B-Arrestin2 Rel EC50) of over 10.3 µM and an EC50 [2, 8] of over 10.3 µM. It also gave an EC50 [3] of 0.303 nM, an EC50 [4] of 0.0718 nM and a Ki [5] of 0.0646 nM. For the same molecule, the Ki [6] was 192 nM and the EC50 [7] was 0.432 nM.

`CC[C@H](C)[C@H](NC(=O)[C@H](CC(C)C)NC(=O)[C@](C)(Cc1ccc(O)cc1)NC(=O)[C@H](CCC(=O)O)NC(=O)[C@@H](NC(=O)[C@H](Cc1ccccc1)NC(=O)[C@H](CCC(=O)O)NC(=O)C(C)(C)NC(=O)[C@H](CCC(N)=O)NC(=O)[C@H](C)NC(=O)[C@H](CCCCNC(=O)COCCOCCNC(=O)COCCOCCNC(=O)CC[C@H](NC(=O)CCCCCCCCCCCCCCCCCCC(=O)O)C(=O)O)NC(=O)[C@H](CCCCN)NC(=O)[C@H](CC(=O)O)NC(=O)[C@H](CC(C)C)NC(=O)[C@](C)(CC(C)C)NC(=O)[C@@H](NC(=O)[C@H](CO)NC(=O)[C@H](Cc1ccc(O)cc1)NC(=O)[C@H](CC(=O)O)NC(=O)[C@H](CO)NC(=O)[C@@H](NC(=O)[C@H](Cc1ccccc1)NC(=O)[C@@H](NC(=O)CNC(=O)[C@H](CCC(=O)O)NC(=O)C(C)(C)NC(=O)[C@H](N)Cc1ccc(O)cc1)[C@@H](C)O)[C@@H](C)O)[C@@H](C)CC)[C@@H](C)CC)C(=O)N[C@@H](C)C(=O)NCC(=O)NCC(=O)N1CCC[C@H]1C(=O)N[C@@H](CO)C(=O)N[C@@H](CO)C(=O)NCC(=O)N[C@@H](C)C(=O)N1CCC[C@H]1C(=O)N1CCC[C@H]1C(=O)N1CCC[C@H]1C(=O)N[C@@H](CO)C(N)=O` [Example 292] (H-[dY][Aib]EGTFTSDYSI[αMeL]LDKK([AEEA-AEEA-γGlu-C20 diacid])AQ[Aib]EFIE[αMeY]LIAGGPSSGAPPPS-NH2; N-terminus assumed) was tested, and the Ki [1] was 1.19 nM, the EC50 [2, 8] was 0.00774 µM and the “hGLP1R B-Arrestin2 % Top” value [2] was 29.0%. For the same molecule, the EC50 [3] was 0.183 nM, the EC50 [4] was 0.0682 nM and the Ki [5] was 0.0547 nM. The Ki [6] was 595 nM and the EC50 [7] was 0.429 nM.
